Like-named read-outs stand apart in the source and are kept apart here.

These results are taken from US5716797A, “Stable two-part reagent for the measurement of creatine kinase activity” (Wako Pure Chemical Industries, Ltd., priority 1995, dated 1998).

The target of this assay is T1, creatine kinase (CK) in human serum (Homo sapiens, UniProt P06732).
T1 construct: Five fresh human serum samples were used; from tissue; host or cells: fresh human serum
Description: Inhibitory effect of oxidized products of SH compounds on CK activity (HK/G6PDH UV method, NAC 26 mM as reactivator). Type of assay: biochemical. To be noted: for CK activity value / CK activity value, Average: 5 mM SH compound oxidized product; for CK activity value: NAC 26 mM, 37° C.; for CK activity value, Average: average of 5 samples; for activity at 5000 µM: read-out: CK activity, relative value. The procedure: Investigation on the inhibitory effect of oxidized products of SH compounds on CK activity
Thus, oxidized products of the SH compounds, respectively, were obtained.
NAC (26 mM) as CK reactivator, each 5 mM of SH compound oxidized product obtained above, 2.6 mM of ADP, 3.9 u/ml of HK (available from Oriental Yeast Co., Ltd.), 8.0 u/ml of G6PDH (available from Oriental Yeast Co., Ltd.), 2.6 mM of NADP, 21 mM of glucose, 10 mM of magnesium acetate, 6.5 mM of AMP, 0.013 mM of APSA, 0.1% (w/v) of sodium azide and 2 mM of EDTA-2Na were dissolved in 128 mM imidazole-acetate buffer (pH 6.7). The thus obtained solutions were adjusted to pH 6.7 with sodium hydroxide to obtain enzyme solutions.
An enzyme solution containing no SH compound oxidized product was prepared as a control standard solution.
Five fresh human serum samples were used.
To 8 μl of each sample was added 320 μl of each enzyme solution, followed by preincubation for 5 minutes. Then, 80 μl of the substrate solution was added to initiate the reaction and the change of absorbance per minute was measured for 3 minutes from 2 minutes after the addition of the substrate solution. The CK activity value was calculated from the molecular extinction coefficient of the NADPH produced.
As a measuring apparatus, an Autoanalyzer Hitachi Model 7150 was used, and the measurement was carried out at 37° C. by use of dual wavelength (λ1 =405 nm, λ2 =340 nm).
Tables 2 and 3 show the CK activity values of the 5 samples in each case and the average thereof.

Where [1] appears, read: average with enzyme solution containing no SH compound oxidized product = 100%, 5 mM oxidized product.

T1 sequence (P06732 whole entry): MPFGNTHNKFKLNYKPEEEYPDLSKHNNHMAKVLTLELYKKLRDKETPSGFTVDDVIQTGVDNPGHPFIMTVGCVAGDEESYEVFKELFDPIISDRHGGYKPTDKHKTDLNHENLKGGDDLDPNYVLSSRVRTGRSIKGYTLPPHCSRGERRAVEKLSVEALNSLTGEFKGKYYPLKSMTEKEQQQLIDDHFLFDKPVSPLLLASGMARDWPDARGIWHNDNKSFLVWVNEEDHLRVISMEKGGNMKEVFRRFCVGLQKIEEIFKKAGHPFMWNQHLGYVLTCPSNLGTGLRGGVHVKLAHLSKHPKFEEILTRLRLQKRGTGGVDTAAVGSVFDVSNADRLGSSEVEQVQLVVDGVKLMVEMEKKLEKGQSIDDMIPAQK

`OCCSSCCO` [2ME oxidized product]: the “CK activity value, Average” value is 226 IU/l and the activity at 5000 µM was determined as 100%. Besides, where the note is “5 mM oxidized product”, the “inhibition of CK activity by oxidized product” value (“inhibition of CK activity” below) is on record as “hardly inhibited CK activity”. Further, the CK activity value (Sample 1 (fresh human serum)) worked out at 155 IU/l. Also, the CK activity value (Sample 2) is 427 IU/l. For the setting “Sample 3”, this compound showed a CK activity value of 113 IU/l. The compound further gave a CK activity value (Sample 4) of 332 IU/l. This compound had a CK activity value (Sample 5) of 101 IU/l.
As for `O=S(=O)(O)CCSSCCS(=O)(=O)O` [2MES oxidized product], the “CK activity value, Average” value came out at 224 IU/l. Besides, for the setting “5 mM oxidized product”, the “inhibition of CK activity” value is “hardly inhibited CK activity”. Also, where the note is “Sample 1 (fresh human serum)”, the CK activity value is 155 IU/l. The CK activity value (Sample 2) is 418 IU/l. Also, the CK activity value (Sample 3) was 114 IU/l. The CK activity value (Sample 4) turned out to be 335 IU/l. The same compound showed a CK activity value (Sample 5) of 98 IU/l. Besides, the activity at 5000 µM under setting [1] was 99.3%.
As for `Nc1cc(O)nc(SSc2nc(N)cc(O)n2)n1` [AHMP oxidized product], the “CK activity value, Average” value turned out to be 217 IU/l. Moreover, for the setting “5 mM oxidized product”, the “inhibition of CK activity” value is on record as “hardly inhibited CK activity”. This compound also registered a CK activity value (Sample 1 (fresh human serum)) of 161 IU/l. Further, the CK activity value (Sample 2) turned out to be 407 IU/l. The compound also yielded a CK activity value (Sample 3) of 106 IU/l. The compound also came in with a CK activity value (Sample 4) of 322 IU/l. Further, the CK activity value (Sample 5) was determined as 97 IU/l. Moreover, the activity at 5000 µM under setting [1] is 96%.
On to `Nc1nc(SSc2nc(N)nc3c2ncn3[C@@H]2O[C@H](CO)[C@@H](O)[C@H]2O)c2ncn([C@@H]3O[C@H](CO)[C@@H](O)[C@H]3O)c2n1` [AMPR oxidized product], for which the “CK activity value, Average” value came out at 0 IU/l. This compound yielded a CK activity value (Sample 1 (fresh human serum)) of 0 IU/l. This compound also registered a CK activity value (Sample 2) of 1 IU/l. Also, the CK activity value (Sample 3) was 0 IU/l. Also, under “Sample 4”, the CK activity value is recorded as 1 IU/l. For the same compound, the CK activity value (Sample 5) is on record as 0 IU/l. Besides, the activity at 5000 µM under setting [1] stood at 0.2%.
Take `OC[C@H]1O[C@@H](SS[C@@H]2O[C@H](CO)[C@@H](O)[C@H](O)[C@H]2O)[C@H](O)[C@@H](O)[C@@H]1O` [TDG oxidized product]: the “CK activity value, Average” value is 204 IU/l. The “inhibition of CK activity” value (5 mM oxidized product) is reported as “hardly inhibited CK activity”. For the setting “Sample 1 (fresh human serum)”, this compound gave a CK activity value of 136 IU/l. The same compound returned a CK activity value (Sample 2) of 388 IU/l. Also, the CK activity value (Sample 3) is recorded as 102 IU/l. Also, the CK activity value (Sample 4) came out at 302 IU/l. The CK activity value (Sample 5) stood at 90 IU/l. Besides, the activity at 5000 µM under setting [1] was determined as 90.2%.
Consider `OCC(O)CSSCC(O)CO` (stereo not shown) [TG oxidized product], for which the “CK activity value, Average” value turned out to be 226 IU/l. For the same compound, the “inhibition of CK activity” value (5 mM oxidized product) is “hardly inhibited CK activity”. Where the note is “Sample 1 (fresh human serum)”, this compound had a CK activity value of 153 IU/l. This compound also registered a CK activity value (Sample 2) of 422 IU/l. The CK activity value (Sample 3) came to 112 IU/l. Further, the CK activity value (Sample 4) is 333 IU/l. Moreover, the CK activity value (Sample 5) amounted to 106 IU/l. Under setting [1], the activity at 5000 µM is 100%.
For `c1ccc(SSc2ccccc2)cc1` [Thiophenol oxidized product], the “CK activity value, Average” value is reported as 99 IU/l and the activity at 5000 µM was 44.1%. Also, the CK activity value (Sample 1 (fresh human serum)) stood at 73 IU/l. This compound also registered a CK activity value (Sample 2) of 180 IU/l. In addition, where the note is “Sample 3”, the CK activity value was found to be 55 IU/l. The compound further gave a CK activity value (Sample 4) of 139 IU/l. Under “Sample 5”, this compound gave a CK activity value of 50 IU/l.
With Mercapto-succinic acid, the “CK activity value, Average” value was found to be 183 IU/l. The compound also gave a CK activity value (Sample 1 (fresh human serum)) of 122 IU/l. Under “Sample 2”, this compound had a CK activity value of 330 IU/l. Further, where the note is “Sample 3”, the CK activity value was 98 IU/l. Also, the CK activity value (Sample 4) was found to be 285 IU/l. The CK activity value (Sample 5) is 80 IU/l. In addition, the “CK activity, relative value” under setting [1] is reported as 81.0%.
